Results as given in PubChem BioAssay AID1963834 (Molecular Pharmacology Branch, DTP, NCI, 2024).

Tested on: 873145-292-R-J1-PDC complex spheroid viability
Assay: Anticancer human tumor 873145-292-R-J1-PDC patient-derived renal clear cell carcinoma cell line growth inhibition [POLQ]
Conditions: for IC50: curve of first compound; for viability, T/C: stronger effect = lower value
Protocol: Multicellular complex tumor spheroid response to Polymerase (POL) inhibitors (novobiocin, ART-558, RP6685) in combination with a variety of drugs and investigational agents in selected tumor cell lines
The POL inhibitors (novobiocin, ART-558, and RP6685) were evaluated both individually and in combination with standard of care and investigational anticancer small molecules within a complex spheroid model of solid tumors. . Complex spheroids include a stromal component modeled by human endothelial cells (HUVEC) and fibroblasts modeled by human mesenchymal stem cells (MSCs). The concentration ranges selected for each drug and investigational agent were based upon clinically achievable concentrations if the clinical Cmax of the agent was known.
Compounds. The drugs and investigational agents: novobiocin (NSC847541), ART-558 (NSC835418), RP-6685 (NSC848927), peposertib (NSC802822), ceralasertib (NSC780249), elimusertib (NSC800525), camonsertib (NSC841442), AZD-1390 (NSC803789), olaparib (NSC753686), talazoparib (NSC767125), rucaparib (NSC756644), sotorasib (NSC818433), MRTX-1133 (NSC836407), SN-38 (NSC673596), topotecan (NSC609699), epotoside (NSC141540), doxorubicin (NSC123127), gemcitabine (NSC613327), 5-fluorouracil (NSC19893), paclitaxel (NSC125973), vemurafenib (NSC761431), MSA-2 (NSC828583), SN-011 (NSC837082), adavosertib (NSC754352), prexasertib (NSC758257), carboplatin (NSC241240) and oxaliplatin (NSC266046), were obtained from the National Cancer Institute (NCI) Developmental Therapeutics Program Chemical Repository (21). The FDA-approved anticancer drug set is available from the Developmental Therapeutics Program at https://dtp.cancer.gov/organization/dscb/obtaining/. […] The stock solutions were prepared in dimethyl sulfoxide (DMSO, Sigma-Aldrich, St. Louis, MO, cat. D2650), except for the platinum compounds which were prepared in saline (Quality Biological, Gaithersburg, MD, cat. 114-055-101), at 800-fold the tested concentration and stored at -70 degrees C prior to their use. All drugs and investigational agents were tested over a range starting from a high concentration at or near the clinical Cmax and decreasing in half-log increments. If the clinical Cmax for an agent had not been determined, the highest concentration tested was 10 microM, except for SN-38, which was tested at a high concentration of 1 microM.
Cell Culture. All cells were maintained in an incubator at 37 degrees C and 5% CO2 with 95% humidity. The PDC lines were cultured according to standard operating procedures established by the NCI PDMR (https://pdmr.cancer.gov). Table 3 of the manuscript, lists the cell lines along with the number of the three cell types plated to form the mct-spheroids and media for tumor cell growth. After thawing, all PDC lines, except 997537-175-T-J1-PDC and 415267-285-R-J2-PDC, were cultured in Matrigel-coated flasks prepared with a working solution of 1X Ham's F-12 nutrient mix, without supplementation (Thermo Fisher Scientific, cat. 11765054), 100 U/mL penicillin-streptomycin (Thermo Fisher Scientific, cat. 15140122), and 2.5% Matrigel (Corning Inc., Corning, NY, cat. 354248) for the first three passages. The two PDC lines 997537-175-T-J1-PDC and 415267-285-R-J2-PDC were cultured on uncoated flasks. The 857933-349-R-J2-PDC line was cultured in 6C/Colon 1B media containing advanced DMEM/F-12 (Thermo Fisher Scientific, cat. 12634028), 10 mM HEPES (Thermo Fisher Scientific, cat. 15630080), 1X GlutaMAX supplement (Thermo Fisher Scientific, cat. 35050061), 0.1 mg/mL primocin (InvivoGen, San Diego, CA, cat. ant-pm-2), 10% defined fetal bovine serum, heat inactivated (HyClone Laboratories Inc., Logan, UT, cat. SH30070.03HI), 50% L-WRN conditioned media (ATCC, cat. CRL-3276), 1.25 mM N-Acetyl-L-cysteine (Sigma-Aldrich, cat. A9165), 10 mM nicotinamide (Sigma-Aldrich, cat. N0636), 1X B-27 supplement (Thermo Fisher Scientific, cat. 17504044), 1X N-2 supplement (Thermo Fisher Scientific, cat. […]
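Also: spheroids exposed to compounds for 7 days before viability readout.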
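For viability, T/C in this document: luminescence signal used as surrogate for viable cell content; 100% = DMSO vehicle control viability.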

Question: `CC(=O)O[C@H]1C(=O)[C@@]2(C)[C@H]([C@H](OC(=O)c3ccccc3)[C@]3(O)C[C@H](OC(=O)[C@H](O)[C@@H](NC(=O)c4ccccc4)c4ccccc4)C(C)=C1C3(C)C)[C@]1(OC(C)=O)CO[C@@H]1C[C@@H]2O` + COC1C(OC(N)=O)C(O)C(Oc2ccc3c(O)c(NC(=O)c4ccc(O)c(CC=C(C)C)c4)c(=O)oc3c2C)OC1(C)C was tested. Which IC50 (second compound 0.0316 µM) did it give?
Answer: > 3 µM

Question: And the IC50 (second compound 0.1 µM)?
Answer: > 3 µM

Question: And the IC50 (second compound 0.316 µM)?
Answer: > 3 µM

Question: What about the IC50 (second compound 1 µM) of the same compound?
Answer: > 3 µM

Question: What about the IC50 (second compound 3.16 µM) of the same compound?
Answer: > 3 µM

Question: And the IC50 (second compound 10 µM)?
Answer: > 3 µM

Question: And the viability, T/C (second compound 0.0316 µM, first compound 0.00949 µM)?
Answer: 90.9%

Question: What about the viability, T/C (second compound 0.0316 µM, first compound 0.03 µM) of the same compound?
Answer: 67.2%

Question: And the viability, T/C (second compound 0.0316 µM, first compound 0.0949 µM)?
Answer: 67.1%

Question: What about the viability, T/C (second compound 0.0316 µM, first compound 0.3 µM) of the same compound?
Answer: 61.8%

Question: And the viability, T/C (second compound 0.0316 µM, first compound 0.949 µM)?
Answer: 60.2%

Question: And the viability, T/C (second compound 0.0316 µM, first compound 3 µM)?
Answer: 66.4%

Question: And the viability, T/C (second compound 0.1 µM, first compound 0.00949 µM)?
Answer: 77.6%

Question: What about the viability, T/C (second compound 0.1 µM, first compound 0.03 µM) of the same compound?
Answer: 75.2%

Question: What about the viability, T/C (second compound 0.1 µM, first compound 0.0949 µM) of the same compound?
Answer: 73.9%

Question: And the viability, T/C (second compound 0.1 µM, first compound 0.3 µM)?
Answer: 58.5%

Question: What about the viability, T/C (second compound 0.1 µM, first compound 0.949 µM) of the same compound?
Answer: 58.5%

Question: What about the viability, T/C (second compound 0.1 µM, first compound 3 µM) of the same compound?
Answer: 57.3%

Question: What about the viability, T/C (second compound 0.316 µM, first compound 0.00949 µM) of the same compound?
Answer: 79.1%

Question: And the viability, T/C (second compound 0.316 µM, first compound 0.03 µM)?
Answer: 73.5%

Question: What about the viability, T/C (second compound 0.316 µM, first compound 0.0949 µM) of the same compound?
Answer: 66.6%

Question: What about the viability, T/C (second compound 0.316 µM, first compound 0.3 µM) of the same compound?
Answer: 60.9%

Question: What about the viability, T/C (second compound 0.316 µM, first compound 0.949 µM) of the same compound?
Answer: 55.7%

Question: What about the viability, T/C (second compound 0.316 µM, first compound 3 µM) of the same compound?
Answer: 60.1%

Question: What about the viability, T/C (second compound 1 µM, first compound 0.00949 µM) of the same compound?
Answer: 84%

Question: What about the viability, T/C (second compound 1 µM, first compound 0.03 µM) of the same compound?
Answer: 77.7%

Question: What about the viability, T/C (second compound 1 µM, first compound 0.0949 µM) of the same compound?
Answer: 74.8%

Question: And the viability, T/C (second compound 1 µM, first compound 0.3 µM)?
Answer: 59%

Question: And the viability, T/C (second compound 1 µM, first compound 0.949 µM)?
Answer: 57.6%

Question: And the viability, T/C (second compound 1 µM, first compound 3 µM)?
Answer: 57.8%

Question: And the viability, T/C (second compound 3.16 µM, first compound 0.00949 µM)?
Answer: 77.4%

Question: What about the viability, T/C (second compound 3.16 µM, first compound 0.03 µM) of the same compound?
Answer: 72.5%

Question: And the viability, T/C (second compound 3.16 µM, first compound 0.0949 µM)?
Answer: 70.1%

Question: And the viability, T/C (second compound 3.16 µM, first compound 0.3 µM)?
Answer: 57.9%

Question: And the viability, T/C (second compound 3.16 µM, first compound 0.949 µM)?
Answer: 58.1%

Question: What about the viability, T/C (second compound 3.16 µM, first compound 3 µM) of the same compound?
Answer: 58.3%

Question: What about the viability, T/C (second compound 10 µM, first compound 0.00949 µM) of the same compound?
Answer: 78.4%

Question: And the viability, T/C (second compound 10 µM, first compound 0.03 µM)?
Answer: 69.1%

Question: What about the viability, T/C (second compound 10 µM, first compound 0.0949 µM) of the same compound?
Answer: 62.3%

Question: And the viability, T/C (second compound 10 µM, first compound 0.3 µM)?
Answer: 55.7%

Question: And the viability, T/C (second compound 10 µM, first compound 0.949 µM)?
Answer: 64.1%

Question: And the viability, T/C (second compound 10 µM, first compound 3 µM)?
Answer: 58.6%

Question: Which results are given for `COc1cccc(OCCCN)c1-c1cc(Nc2cnc(C#N)cn2)n[nH]1` + COC1C(OC(N)=O)C(O)C(Oc2ccc3c(O)c(NC(=O)c4ccc(O)c(CC=C(C)C)c4)c(=O)oc3c2C)OC1(C)C?
Answer: IC50 (second compound 0.0316 µM): > 1 µM; IC50 (second compound 0.1 µM): > 1 µM; IC50 (second compound 0.316 µM): > 1 µM; IC50 (second compound 1 µM): > 1 µM; IC50 (second compound 3.16 µM): > 1 µM; IC50 (second compound 10 µM): > 1 µM; viability, T/C (second compound 0.0316 µM, first compound 0.00316 µM): 102%; viability, T/C (second compound 0.0316 µM, first compound 0.01 µM): 82.4%; viability, T/C (second compound 0.0316 µM, first compound 0.0316 µM): 62.8%; viability, T/C (second compound 0.0316 µM, first compound 0.1 µM): 61.3%; viability, T/C (second compound 0.0316 µM, first compound 0.316 µM): 61%; viability, T/C (second compound 0.0316 µM, first compound 1 µM): 68.7%; viability, T/C (second compound 0.1 µM, first compound 0.00316 µM): 106%; viability, T/C (second compound 0.1 µM, first compound 0.01 µM): 93.8%; viability, T/C (second compound 0.1 µM, first compound 0.0316 µM): 71.1%; viability, T/C (second compound 0.1 µM, first compound 0.1 µM): 71.5%; viability, T/C (second compound 0.1 µM, first compound 0.316 µM): 62.1%; viability, T/C (second compound 0.1 µM, first compound 1 µM): 72.3%; viability, T/C (second compound 0.316 µM, first compound 0.00316 µM): 104%; viability, T/C (second compound 0.316 µM, first compound 0.01 µM): 84.8%; viability, T/C (second compound 0.316 µM, first compound 0.0316 µM): 64.7%; viability, T/C (second compound 0.316 µM, first compound 0.1 µM): 57.8%; viability, T/C (second compound 0.316 µM, first compound 0.316 µM): 71.1%; viability, T/C (second compound 0.316 µM, first compound 1 µM): 62.1%; viability, T/C (second compound 1 µM, first compound 0.00316 µM): 97.9%; viability, T/C (second compound 1 µM, first compound 0.01 µM): 76.3%; viability, T/C (second compound 1 µM, first compound 0.0316 µM): 62.5%; viability, T/C (second compound 1 µM, first compound 0.1 µM): 62.4%; viability, T/C (second compound 1 µM, first compound 0.316 µM): 58.7%; viability, T/C (second compound 1 µM, first compound 1 µM): 72.9%; viability, T/C (second compound 3.16 µM, first compound 0.00316 µM): 108%; viability, T/C (second compound 3.16 µM, first compound 0.01 µM): 72%; viability, T/C (second compound 3.16 µM, first compound 0.0316 µM): 71.9%; viability, T/C (second compound 3.16 µM, first compound 0.1 µM): 63.8%; viability, T/C (second compound 3.16 µM, first compound 0.316 µM): 68.4%; viability, T/C (second compound 3.16 µM, first compound 1 µM): 68.7%; viability, T/C (second compound 10 µM, first compound 0.00316 µM): 90.8%; viability, T/C (second compound 10 µM, first compound 0.01 µM): 80%; viability, T/C (second compound 10 µM, first compound 0.0316 µM): 73.1%; viability, T/C (second compound 10 µM, first compound 0.1 µM): 62.6%; viability, T/C (second compound 10 µM, first compound 0.316 µM): 66.1%; viability, T/C (second compound 10 µM, first compound 1 µM): 78.3%
